Results from US20190315966A1, “COMPOUNDS FOR THE DETECTION OF SENESCENT CELLS” (THE UNIVERSITY OF MANCHESTER, priority 2016, published 2019).

Columns and labels:
[1] = tested on: senescent cells in irradiated human laryngeal tumors; assay: Histochemical staining of paraffin embedded, formalin fixed tissue sections, irradiated human laryngeal tumors; conditions: irradiated human laryngeal tumor sections; stain in 70% ethanol, 10 min; microscopy
Description: (§1) Tissue sections were obtained from paraffin embedded, formalin fixed: (a) irradiated human laryngeal tumors and (b) mouse lung adenomas, with established presence of senescent cells [as described in Georgakopoulou et al, Aging (Albany N.Y.) 2013]. Subsequently, they were immobilized on glass microscopy slides by standard procedures and processed as follows: • a. Deparaffinization for 5 min at room temperature in xylene. • b. Gradual rehydration in solutions of descending concentration of ethanol (100%, 80%, 70%, 50% v/v) and finally in TBS (Tris-buffered saline) or PBS (Phosphate-buffered saline) solution. • c. The SSB dye was diluted in 70% ethanol (v/v), filtered and then applied on tissue sections for 10 min. • d. Quick wash in 50% (v/v) ethanol. • e. Transfer and wash in TBS or PBS solution. • f. Counterstain with Hematoxylin or Nuclear Fast Red, followed by mounting with glycerol and sealed with a cover slip. • g. Microscopy observation.
(§2) Tissue sections were obtained from paraffin embedded, formalin fixed: (a) irradiated human laryngeal tumors and (b) mouse lung adenomas. Subsequently, they were immobilized on glass microscopy slides by standard procedures and processed as follows: • a. Deparaffinization for 5 min at room temperature in xylene. • b. […]

[2] = tested on: senescent cells in mouse lung adenomas; assay: Histochemical staining of paraffin embedded, formalin fixed tissue sections, mouse lung adenomas; conditions: mouse lung adenoma sections; stain in 70% ethanol, 10 min; microscopy
Description: as §1, §2

Saos2-p53 Tet-On cells = assay: Histochemical staining of cell spreads on cover slips; type: cell-based; conditions: Saos2-p53 Tet-On cells after p53 induction; stain in ethanol, 10 min
Description: (§3) Saos2-p53 Tet-On cells were grown on cover slips and collected after p53 induction to induce senescence. Cover slips were treated as follows: • a. Fixation in ice-cold ethanol or methanol for 4 min. • b. Application of SSB Dye, diluted in ethanol and filtered, on cells for 10 min. • c. Quick wash in 50% (v/v) ethanol. • d. Transfer and wash in TBS or PBS solution. • e. Counterstain with Nuclear Fast Red, followed by mounting with glycerol and sealing with a cover slip. • f. Microscopy observation.
as §3, with “collected […]” for “collected”, “the LG9 SBB-analogue,” for “SSB Dye,”

[3] = tested on: lipofuscin rich cells in human seminal vesicle and human liver with steatohepatitis; assay: Control staining of reference tissues with high lipofuscin content (seminal vesicle, liver with steatohepatitis); conditions: human seminal vesicle and liver with steatohepatitis sections
Description: as §1, with “(a)” for “(a) irradiated”, “seminal vesicle” for “laryngeal tumors”, “human liver” for “mouse lung adenomas,”, “steatohepatitis that have high content” for “established presence”, “lipofusin making them ideal reference (control) tissues to test the SBB assay.” for “senescent cells [as described in Georgakopoulou et al, Aging (Albany N.Y.) 2013].”
Tissue sections were obtained from paraffin embedded, formalin fixed: (a) human seminal vesicle and (b) human liver with steatohepatitis that have high content of lipofusin making them ideal reference (control) tissues to test the performance of the LG9 compound. Subsequently, they were immobilized on glass microscopy slides by standard procedures and processed as follows: • a. Deparaffinization for 5 min at room temperature in xylene. • b. […]

[4] = per Georgakopoulou et al, Aging 2013; cited from earlier work
[5] = Ethanol solubility of the stain in the histochemical method; type: physicochemical; conditions: stain diluted in ethanol / 70% ethanol (v/v) and filtered
[6] = tested on: senescent cells in human thymus; assay: Histochemical staining of human thymus tissue sections (cortex and medulla); conditions: cortex and medulla of the human thymus
Description: as §1, with “fixed,” for “fixed: (a) irradiated”, “thymus” for “laryngeal tumors”, “specifically from the cortex and medulla” for “(b) mouse lung adenomas, with established presence”, “this organ.” for “senescent cells [as described in Georgakopoulou et al, Aging (Albany N.Y.) 2013].”, “LG9 SBB-analogue” for “SSB dye”

[7] = tested on: senescent cells in liver biopsies; assay: Histochemical staining of liver tissue sections with high content of lipofuscin
Description: as §1, with “fixed liver biopsies that have high content” for “fixed: (a) irradiated human laryngeal tumors and (b) mouse lung adenomas, with established presence”, “lipofusin.” for “senescent cells [as described in Georgakopoulou et al, Aging (Albany N.Y.) 2013].”, “LG46 or LG48 analogue” for “SSB dye”

SMILES | staining of senescent cells [1] | staining of senescent cells [2] | staining of lipofuscin rich cells [3] | ethanol solubility in the staining method [5] | staining of cells [7] | also measured
CC1(C)Nc2cccc3c(/N=N/c4ccc(/N=N/c5ccccc5)c5ccccc45)ccc(c23)N1 [SBB, Sudan Black B, reference compound] | clearly stained | clearly stained | stained cells | – | – | staining of senescent cells (Saos2-p53 Tet-On cells): clearly stained; ethanol solubility of the SBB stain [4]: ethanol solubility problems
CC1(CO)Nc2cccc3c(/N=N/c4ccc(/N=N/c5ccccc5)c5ccccc45)ccc(c23)N1 (stereo not drawn) [LG9, (2-methyl-6-((E)-(4-((E)-phenyldiazenyl)naphthalen-1-yl)diazenyl)-2,3-dihydro-1H-perimidin-2-yl)methanol] | stained senescent cells | stained senescent cells | stained cells | does not encounter the ethanol solubility problems | – | staining of senescent cells [6]: stained senescent cells
CC1(C)Nc2cccc3c(/N=N/c4ccc(/N=N/c5ccc(CCO)cc5)c5ccccc45)ccc(c23)N1 [LG48, 2-(4-((E)-(4-((E)-(2,2-dimethyl-2,3-dihydro-1H-perimidin-6-yl)diazenyl)naphthalen-1-yl)diazenyl)phenyl)ethanol] | – | – | – | does not encounter the ethanol solubility problems | stained cells | –
CC1(C)Nc2cccc3c(/N=N/c4ccc(/N=N/c5cccc(O)c5)c5ccccc45)ccc(c23)N1 [LG46, 3-((E)-(4-((E)-(2,2-dimethyl-2,3-dihydro-1H-perimidin-6-yl)diazenyl)naphthalen-1-yl)diazenyl)phenol] | – | – | – | does not encounter the ethanol solubility problems | stained cells | –
CC1(CCCO)Nc2cccc3c(/N=N/c4ccc(/N=N/c5ccccc5)c5ccccc45)ccc(c23)N1 (stereo not drawn) [Example 5, 3-(2-Methyl-6-((E)-(4-((E)-phenyldiazenyl)naphthalen-1-yl)diazenyl)-2,3-dihydro-1H-perimidin-2-yl)propan-1-ol] | – | – | – | – | – | melting point: 124 to 126 °C
